Experimental data from patent US9687479B2, “Multisubstituted aromatic compounds as serine protease inhibitors” (VERSEON CORPORATION, priority 2013, dated 2017).

Experiments:
[1] = biological target: Human KLKB1 (Homo sapiens (Human), UniProt P03952); experiment: KLKB1 kallikrein activity inhibition assay (chromogenic substrate S-2302); assay type: biochemical
Description: The KLKB1 kallikrein activity reported herein (e.g., Tables B, C, and D) was obtained as follows. Human KLKB1 protein was obtained from Enzyme Research Labs. […] KLKB1 was assayed in buffer containing 0.05 M Tris (pH 7.4), 0.01 M NaCl and 0.2% w/v PEG-8000. The final concentration of enzyme used was 3 nM KLKB1. […] All assays were performed in 96-well microtiter plates at room temperature (RT). […] Inhibitor IC50 values were determined by adding test compound as ten point, three-fold serial dilutions in buffer solution, as known in the art. The plate was read at 10 minutes after substrate addition. The IC50 was calculated by plotting the percent (%) inhibition against compound concentration and fitting the data to a constrained four parameter sigmoidal curve, as known in the art.

[2] = biological target: Human thrombin (Homo sapiens (Human), UniProt P00734); experiment: Thrombin protease activity inhibition assay (chromogenic substrate S-2238); assay type: biochemical; conditions: 3 nM thrombin, 125 μM S-2238, 10 min pre-incubation, RT
Procedure, shortened: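 Thrombin at 3 nM final in 0.05 M Tris pH 7.4, 0.015 M NaCl, 0.01% PEG-8000, at room temperature; compounds as ten-point three-fold dilutions.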

Human KLKB1, sequence (P03952 391-638 limits assumed): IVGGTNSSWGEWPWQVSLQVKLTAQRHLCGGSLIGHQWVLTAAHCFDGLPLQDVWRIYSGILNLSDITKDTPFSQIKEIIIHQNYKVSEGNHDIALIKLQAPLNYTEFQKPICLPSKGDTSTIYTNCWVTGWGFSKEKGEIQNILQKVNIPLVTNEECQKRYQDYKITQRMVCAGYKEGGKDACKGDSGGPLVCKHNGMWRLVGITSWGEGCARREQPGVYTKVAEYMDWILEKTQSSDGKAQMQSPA
Human KLKB1, sequence (P03952 20-390 partner limits assumed): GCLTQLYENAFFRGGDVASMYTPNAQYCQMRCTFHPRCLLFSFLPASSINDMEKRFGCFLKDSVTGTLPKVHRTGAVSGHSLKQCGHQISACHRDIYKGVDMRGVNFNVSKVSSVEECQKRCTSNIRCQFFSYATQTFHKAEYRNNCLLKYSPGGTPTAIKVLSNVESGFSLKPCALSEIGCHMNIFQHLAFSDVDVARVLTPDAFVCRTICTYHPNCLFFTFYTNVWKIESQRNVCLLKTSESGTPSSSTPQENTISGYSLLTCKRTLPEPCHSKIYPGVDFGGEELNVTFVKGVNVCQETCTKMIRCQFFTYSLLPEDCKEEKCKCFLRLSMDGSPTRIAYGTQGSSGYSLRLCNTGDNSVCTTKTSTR

Row | Structure (SMILES) | IC50 [2] [µM] | further results
1 | CC(C)C(=O)n1nc(-c2cccnc2)nc1NCc1ccc(F)cc1 [Cmpd 310] |  | IC50 ([1]; Table C): 10 to 100 µM
2 | O=C(c1ccoc1)n1nc(-c2ccccn2)nc1NCc1ccc(F)cc1 [Cmpd 371] |  | IC50 ([1]; Table C): 1 to 10 µM
3 | COc1ccccc1C(=O)n1nc(-c2ccco2)nc1NCc1ccccc1 [Cmpd 403] |  | IC50 ([1]; Table C): 1 to 10 µM
4 | CCC(=O)n1nc(-c2ccccc2)cc1NCc1ccc(F)cc1 [Cmpd 268] |  | IC50 ([1]; Table B): > 100 µM
5 | CC(C)(C)C(=O)n1nc(-c2cccnc2)nc1NCc1ccc(F)cc1 [Cmpd 308] |  | IC50 ([1]; Table C): 10 to 100 µM
6 | CCC(=O)n1nc(-c2ccccn2)nc1NCc1ccc(OC)cc1 [Cmpd 325] |  | IC50 ([1]; Table C): 10 to 100 µM
7 | COc1ccccc1C(=O)n1nc(C2CCCO2)nc1NCc1ccc(Cl)s1 (centres unmarked) [Cmpd 386] |  | IC50 ([1]; Table C): 0.1 to 1 µM
8 | Cc1cc(N(C)c2ccccc2)nc(N[C@H]2CCc3c(N)cccc3C2)n1 [Cmpd 422, 2-N-[(2S)-5-amino-1,2,3,4-tetrahydronaphthalen-2-yl]-4-N,6-dimethyl-4-N-phenylpyrimidine-2,4-diamine] |  | IC50 ([1]; 3 nM KLKB1, 250 μM S-2302, 10 min pre-incubation, RT): > 100 µM
9 | O=C(c1ccco1)n1nc(-c2ccncc2)nc1NCc1ccccc1 [Cmpd 400] |  | IC50 ([1]; Table C): 1 to 10 µM
10 | COc1ccccc1C(=O)n1nc(-c2cncnc2)nc1NCc1ccccc1 [Cmpd 17] |  | IC50 ([1]; Table C): 0.1 to 1 µM
11 | O=C(c1ccoc1)n1nc(-c2cccnc2)nc1NCc1ccc(F)cc1 [Cmpd 372] |  | IC50 ([1]; Table C): 1 to 10 µM
12 | O=C(Cc1ccccc1)n1nc(-c2ccccn2)nc1NCc1ccc(F)cc1 [Cmpd 303] |  | IC50 ([1]; Table C): 1 to 10 µM
13 | CC(C)(C)C(=O)n1nc(-c2ccncc2)nc1NCc1ccccc1 [Cmpd 350] |  | IC50 ([1]; Table C): > 100 µM
14 | CN(C)c1cc(-c2cccn(Cc3ccccn3)c2=O)nn1C(=O)c1ccco1 [Cmpd 240, 3-[5-(dimethylamino)-1-[(furan-2-yl)carbonyl]-1H-pyrazol-3-yl]-1-(pyridin-2-ylmethyl)-1,2-dihydropyridin-2-one] | > 100 | 
15 | CC(C)(C)C(=O)n1nc(-c2cccn(Cc3ccc(Cl)s3)c2=O)cc1NCc1ccc(Cl)s1 [Cmpd 39, 1-[(5-chlorothiophen-2-yl)methyl]-3-(5-[(5-chlorothiophen-2-yl)methyl]amino-1-(2,2-dimethylpropanoyl)-1H-pyrazol-3-yl)-1,2-dihydropyridin-2-one] | < 0.1 | 
16 | O=c1c(-c2cc(NCc3ccc(Cl)s3)[nH]n2)cccn1Cc1ccccc1Cl [Cmpd 30, 1-[(2-chlorophenyl)methyl]-3-(5-[(5-chlorothiophen-2-yl)methyl]amino-1H-pyrazol-3-yl)-1,2-dihydropyridin-2-one] | 10 to 100 | 
17 | O=C(c1ccsc1)n1nc(-c2cccn(CCN3CCOCC3)c2=O)cc1NCc1ccc(Cl)s1 [Cmpd 204, 3-(5-[(5-chlorothiophen-2-yl)methyl]amino-1-[(thiophen-3-yl)carbonyl]-1H-pyrazol-3-yl)-1-[2-(morpholin-4-yl)ethyl]-1,2-dihydropyridin-2-one] | < 0.1 | 
18 | CC(C)(C)C(=O)n1nc(-c2cccn(Cc3ncccn3)c2=O)cc1NCc1ccc(Cl)s1 [Cmpd 85, 3-(5-[(5-chlorothiophen-2-yl)methyl]amino-1-(2,2-dimethylpropanoyl)-1H-pyrazol-3-yl)-1-(pyrimidin-2-ylmethyl)-1,2-dihydropyridin-2-one] | < 0.1 | 
19 | CC(C)(CO)C(=O)n1nc(-c2cccn(Cc3cccs3)c2=O)cc1NCc1ccc(Cl)s1 [Cmpd 95, 3-(5-[(5-chlorothiophen-2-yl)methyl]amino-1-(3-hydroxy-2,2-dimethylpropanoyl)-1H-pyrazol-3-yl)-1-(thiophen-2-ylmethyl)-1,2-dihydropyridin-2-one] | < 0.1 | 
20 | CC(C)(C)C(=O)n1nc(-c2cccn(CC#N)c2=O)cc1NCc1ccc(Cl)s1 [Cmpd 56, 2-[3-(5-[(5-chlorothiophen-2-yl)methyl]amino-1-(2,2-dimethylpropanoyl)-1H-pyrazol-3-yl)-2-oxo-1,2-dihydropyridin-1-yl]acetonitrile] | < 0.1 | 
21 | CC(C)(C)OC(=O)Cn1cccc(-c2cc(NCc3ccc(Cl)s3)n(C(=O)C(C)(C)C)n2)c1=O [Cmpd 261, tert-butyl 2-[3-(5-[(5-chlorothiophen-2-yl)methyl]amino-1-(2,2-dimethylpropanoyl)-1H-pyrazol-3-yl)-2-oxo-1,2-dihydropyridin-1-yl]acetate] | < 0.1 | 
22 | Nc1cc(-c2ccc[nH]c2=O)nn1C(=O)c1ccco1 [Cmpd 255, 3-5-amino-1-[(furan-2-yl)carbonyl]-1H-pyrazol-3-yl-1,2-dihydropyridin-2-one] | 1 to 10 | 
23 | O=c1c(-c2cc(NCc3ccc(Cl)s3)[nH]n2)cccn1Cc1ccc2ccccc2c1 [Cmpd 225, 3-(5-[(5-chlorothiophen-2-yl)methyl]amino-1H-pyrazol-3-yl)-1-(naphthalen-2-ylmethyl)-1,2-dihydropyridin-2-one] | > 100 | 
24 | CCOC(=O)Cn1cccc(-c2cc(NCc3ccc(Cl)s3)n(C(=O)C(C)(C)C)n2)c1=O [Cmpd 257, ethyl 2-[3-(5-[(5-chlorothiophen-2-yl)methyl]amino-1-(2,2-dimethylpropanoyl)-1H-pyrazol-3-yl)-2-oxo-1,2-dihydropyridin-1-yl]acetate] | < 0.1 | 
25 | CC(C)(C)C(=O)n1nc(-c2cccn(Cc3cccs3)c2=O)cc1NCc1ccc(Cl)s1 [Cmpd 86, 3-(5-[(5-chlorothiophen-2-yl)methyl]amino-1-(2,2-dimethylpropanoyl)-1H-pyrazol-3-yl)-1-(thiophen-2-ylmethyl)-1,2-dihydropyridin-2-one] | < 0.1 | 
26 | CC(C)(C)OC(=O)Cn1cccc(-c2cc(NCc3ccc(Cl)s3)[nH]n2)c1=O [Cmpd 264, tert-butyl 2-[3-(5-[(5-chlorothiophen-2-yl)methyl]amino-1H-pyrazol-3-yl)-2-oxo-1,2-dihydropyridin-1-yl]acetate] | > 100 | 

Further lines, with some results ahead:

Row | IC50 [2] [µM] | Structure (SMILES) | further results
27 | < 0.1 | O=C(c1ccoc1)n1nc(-c2cccn(Cc3ncccn3)c2=O)cc1NCc1ccc(Cl)s1 [Cmpd 178, 3-(5-[(5-chlorothiophen-2-yl)methyl]amino-1-[(furan-3-yl)carbonyl]-1H-pyrazol-3-yl)-1-(pyrimidin-2-ylmethyl)-1,2-dihydropyridin-2-one] | 
28 | < 0.1 | O=C(c1ccsc1)n1nc(-c2cccn(Cc3ccncc3)c2=O)cc1NCc1ccc(Cl)s1 [Cmpd 200, 3-(5-[(5-chlorothiophen-2-yl)methyl]amino-1-[(thiophen-3-yl)carbonyl]-1H-pyrazol-3-yl)-1-(pyridin-4-ylmethyl)-1,2-dihydropyridin-2-one] | 
29 | < 0.1 | COCCOc1ccc(C(=O)n2nc(-c3ccc[nH]c3=O)cc2NCc2ccc(Cl)s2)cc1 [Cmpd 206, 3-(5-[(5-chlorothiophen-2-yl)methyl]amino-1-[4-(2-methoxyethoxy)phenyl]carbonyl-1H-pyrazol-3-yl)-1,2-dihydropyridin-2-one] | 
30 | < 0.1 | COc1ccccc1C(=O)n1nc(-c2cccn(Cc3ccncc3)c2=O)cc1NCc1ccc(Cl)s1 [Cmpd 141, 3-(5-[(5-chlorothiophen-2-yl)methyl]amino-1-[(2-methoxyphenyl)carbonyl]-1H-pyrazol-3-yl)-1-(pyridin-4-ylmethyl)-1,2-dihydropyridin-2-one] | 
31 | < 0.1 | O=C(c1ccoc1)n1nc(-c2cccn(Cc3cccc4ccccc34)c2=O)cc1NCc1ccc(Cl)s1 [Cmpd 174, 3-(5-[(5-chlorothiophen-2-yl)methyl]amino-1-[(furan-3-yl)carbonyl]-1H-pyrazol-3-yl)-1-(naphthalen-1-ylmethyl)-1,2-dihydropyridin-2-one] | 
32 | < 0.1 | COc1ccc(C(=O)n2nc(-c3cccn(Cc4cccs4)c3=O)cc2NCc2ccc(Cl)s2)c(OC)c1 [Cmpd 129, 3-(5-[(5-chlorothiophen-2-yl)methyl]amino-1-[(2,4-dimethoxyphenyl)carbonyl]-1H-pyrazol-3-yl)-1-(thiophen-2-ylmethyl)-1,2-dihydropyridin-2-one] | 
33 | < 0.1 | O=C(c1cccs1)n1nc(-c2cccn(Cc3ccccn3)c2=O)cc1NCc1ccc(Cl)s1 [Cmpd 186, 3-(5-[(5-chlorothiophen-2-yl)methyl]amino-1-[(thiophen-2-yl)carbonyl]-1H-pyrazol-3-yl)-1-(pyridin-2-ylmethyl)-1,2-dihydropyridin-2-one] | 
34 | < 0.1 | Cn1cccc(-c2cc(NCc3ccc(Cl)s3)n(C(=O)c3ccc(C(C)(C)C)cc3)n2)c1=O [Cmpd 254, 3-1-[(4-tert-butylphenyl)carbonyl]-5-[(5-chlorothiophen-2-yl)methyl]amino-1H-pyrazol-3-yl-1-methyl-1,2-dihydropyridin-2-one] | 
35 | < 0.1 | O=C(c1ccccc1)n1nc(-c2ccc[nH]c2=O)cc1NCc1ccc(Cl)s1 [Cmpd 61, 3-(1-benzoyl-5-[(5-chlorothiophen-2-yl)methyl]amino-1H-pyrazol-3-yl)-1,2-dihydropyridin-2-one] | 
36 | < 0.1 | CC(C)(CO)C(=O)n1nc(-c2ccc[nH]c2=O)cc1NCc1ccc(Cl)s1 [Cmpd 91, 3-(5-[(5-chlorothiophen-2-yl)methyl]amino-1-(3-hydroxy-2,2-dimethylpropanoyl)-1H-pyrazol-3-yl)-1,2-dihydropyridin-2-one] | 
37 | < 0.1 | O=C(c1ccoc1)n1nc(-c2cccn(Cc3cccnc3)c2=O)cc1NCc1ccc(Cl)s1 [Cmpd 177, 3-(5-[(5-chlorothiophen-2-yl)methyl]amino-1-[(furan-3-yl)carbonyl]-1H-pyrazol-3-yl)-1-(pyridin-3-ylmethyl)-1,2-dihydropyridin-2-one] | 
38 | < 0.1 | O=C(c1ccccc1)n1nc(-c2cccn(Cc3ccsc3)c2=O)cc1NCc1ccc(Cl)s1 [Cmpd 71, 3-(1-benzoyl-5-[(5-chlorothiophen-2-yl)methyl]amino-1H-pyrazol-3-yl)-1-(thiophen-3-ylmethyl)-1,2-dihydropyridin-2-one] | 
